# Laboratory results: patent publication US20240383908A1, “SYNTHESIS AND APPLICATION OF PHOSPHATASE DEGRADER” (HINOVA PHARMACEUTICALS INC., priority 2021, published 2024)
# Molecular target: T1, SHP2 protein (Homo sapiens, UniProt Q06124)
# T1 sequence (Q06124 1-593): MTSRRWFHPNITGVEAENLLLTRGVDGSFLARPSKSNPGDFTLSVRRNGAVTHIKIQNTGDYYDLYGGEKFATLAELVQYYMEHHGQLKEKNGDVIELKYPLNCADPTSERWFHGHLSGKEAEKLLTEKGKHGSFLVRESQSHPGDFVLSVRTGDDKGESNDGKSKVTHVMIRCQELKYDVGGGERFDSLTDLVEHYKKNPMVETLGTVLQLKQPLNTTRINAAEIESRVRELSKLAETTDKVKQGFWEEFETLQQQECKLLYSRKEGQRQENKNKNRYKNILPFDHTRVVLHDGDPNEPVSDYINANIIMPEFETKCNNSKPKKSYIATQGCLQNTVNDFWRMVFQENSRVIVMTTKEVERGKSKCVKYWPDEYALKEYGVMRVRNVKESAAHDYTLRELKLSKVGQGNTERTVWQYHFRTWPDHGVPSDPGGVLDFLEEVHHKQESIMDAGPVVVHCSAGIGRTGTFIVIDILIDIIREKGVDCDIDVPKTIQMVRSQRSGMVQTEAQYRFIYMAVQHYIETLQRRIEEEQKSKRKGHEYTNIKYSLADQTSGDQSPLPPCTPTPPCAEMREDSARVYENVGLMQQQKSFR
# Assay: Degradation activity on SHP2 protein in MIA Paca-2 cells (Western blot, DC50)
# Assay type: cell-based
# Design: endogenous in cells; host or cells: MIA Paca-2 cells
# Conditions: read-out: Degradation activity for differenct cell lines MIA Paca-2 (DC50)
# Experimental: (1) MV-411 cells were cultured in the cell culture medium, and then well-growing cells were selected and inoculated in a 12-well plate, with 1 mL/well and 1×10^6 cells/well. The plate was incubated overnight in a 5% CO2 cell incubator at 37° C.
# (2) 10 mM storage solution of each drug was prepared using dimethylsulfoxide (DMSO). The stock solution was diluted gradually with DMSO before use, and then 1 μL of the compound solution was added to the cell culture well (to ensure that the DMSO concentration in the culture system was […]), so that the final drug concentration is 100 nM, 10 nM, 3 nM, 1 nM, 0.3 nM, and 0.1 nM. Two wells were set for each concentration. The plate was gently shaken and mixed. Additionally, negative control wells (containing an equal amount of DMSO) and positive control wells were included.
# (3) After 24 hours of cultivation, the cells were lysed using RIPA cell lysate, and the proteins were extracted. The protein concentration was measured using a BCA assay kit. 5× concentrated protein buffer was loaded, heated at 100° C. for 5 min, and then the sample was stored at −20° C.
# (4) For each well, 30 μg of protein was loaded to polyacrylamide gel for electrophoresis.
# (5) The protein was transferred from polyacrylamide gel to PVDF membrane, and sealed at room temperature with 5% skimmed milk for 1 h, which was then incubated with the primary antibodies (Anti-SHP2 rabbit mAb and Anti-GAPDH rabbit mAb) at 4° C. overnight. The membrane was washed three times with TBST solution, 10 minutes for each time. After that, the membrane was incubated with the secondary antibodies (horseradish peroxidase labeled goat anti-rabbit IgG) at room temperature for 2 h, and then washed three times with TBST solution, 10 minutes for each time, followed by exposure.
# (6) The images were analyzed with Image J grayscale, and the degradation ratio of protein bands in the test group was calculated, based on the negative control group (DMSO) (100%).
# (7) Using the Dose-response-inhibition equation in the data processing software GraphPad Prism 8, the DC50 value was obtained (which represents the drug concentration corresponding to 50% degradation of the target protein).
# Using similar methods and different cell lines, the degradation activity of the compound according to the present invention on SHP2 protein of different cell lines was tested under suitable culture conditions.
row,SMILES,DC50 [nM]
1,O=C1CCC(N2Cc3cc(CNC(=O)c4ccc(N5CCC6(CN(CCCCCCC(=O)Nc7cccc(Sc8cnc(N9CCCCC9)cn8)c7)C6)C5)nn4)ccc3C2=O)C(=O)N1 (stereo not shown) [Compound 212],> 1000
2,CC1(N)CCN(c2cnc(Sc3cccc(NC(=O)CCCCCOc4ccc(-c5ccc(C(=O)NCc6ccc7c(c6)CN(C6CCC(=O)NC6=O)C7=O)nc5)cc4)c3)cn2)CC1 (stereo not shown) [Compound 213],> 1000
3,CC1(N)CCN(c2cnc(Sc3cccc(NC(=O)CCCCCCN4CCC5(CC4)CC(=O)N(CC(=O)NCc4ccc6c(c4)CN(C4CCC(=O)NC4=O)C6=O)C5)c3)cn2)CC1 (stereo not shown) [Compound 215],> 1000
4,C[C@@H]1OCC2(CCN(c3cnc(Sc4cccc(NCc5ccc(CN6CCN(c7ccc(C(=O)NCc8ccc9c(c8)CN(C8CCC(=O)NC8=O)C9=O)nn7)CC6)cc5)c4)cn3)CC2)[C@@H]1N (stereo partly shown) [Compound 253],> 1000
5,CC1(N)CCN(c2cnc(Sc3cccc(NCc4ccc(CN5CCN(c6ccc7c(c6)CN(C6CCC(=O)NC6=O)C7=O)CC5)cc4)c3)cn2)CC1 (stereo not shown) [Compound 254],> 1000
6,C[C@@H]1OCC2(CCN(c3cnc(Sc4cccc(NCc5ccc(CN6CCN(c7ccc8c(c7)CN(C7CCC(=O)NC7=O)C8=O)CC6)cc5)c4)cn3)CC2)[C@@H]1N (stereo partly shown) [Compound 255],> 1000
7,CC1(N)CCN(c2cnc(Sc3cccc(NCC4CCC(N5CCN(c6ccc7c(c6)CN(C6CCC(=O)NC6=O)C7=O)CC5)CC4)c3)cn2)CC1 (stereo not shown) [Compound 256],> 1000
8,CC1(N)CCN(c2cnc(Sc3cccc(NCc4ccc(N5CCN(c6ccc(C(=O)NCc7ccc8c(c7)C(=O)N(C7CCC(=O)NC7=O)C8)nn6)CC5)c(F)c4)c3)cn2)CC1 (stereo not shown) [Compound 258],> 1000
9,CC1(N)CCN(c2cnc(Sc3cccc(NC(=O)c4ccc(N5CCN(c6ccc(C(=O)NCc7ccc8c(c7)C(=O)N(C7CCC(=O)NC7=O)C8)nn6)CC5)c(F)c4)c3)cn2)CC1 (stereo not shown) [Compound 260],> 1000
10,C[C@@H]1OCC2(CCN(c3cnc(Sc4cccc(NC(=O)c5ccc(N6CCN(c7ccc(C(=O)NCc8ccc9c(c8)C(=O)N(C8CCC(=O)NC8=O)C9)nn7)CC6)c(F)c5)c4)cn3)CC2)[C@@H]1N (stereo partly shown) [Compound 261],< 100
11,C[C@@H]1OCC2(CCN(c3cnc(Sc4cccc(NC(=O)CCCN5CCN(c6ccc(C(=O)NCc7ccc8c(c7)C(=O)N(C7CCC(=O)NC7=O)C8)nn6)CC5)c4)cn3)CC2)[C@@H]1N (stereo partly shown) [Compound 262],> 1000
12,C[C@@H]1OCC2(CCN(c3cnc(Sc4cccc(NC(=O)COc5ccc(N6CCN(c7ccc(C(=O)NCc8ccc9c(c8)CN(C8CCC(=O)NC8=O)C9=O)nn7)CC6)cc5)c4)cn3)CC2)[C@@H]1N (stereo partly shown) [Compound 263],< 100
13,CC1(N)CCN(c2cnc(Sc3cccc(NC(=O)COc4ccc(N5CCN(c6ccc(C(=O)NCc7ccc8c(c7)CN(C7CCC(=O)NC7=O)C8=O)nn6)CC5)cc4)c3)cn2)CC1 (stereo not shown) [Compound 265],< 100
14,CC1(N)CCN(c2cnc(Sc3cccc(NC(=O)CCCCN4CCC(N5CCN(c6ccc(C(=O)NCc7ccc8c(c7)CN(C7CCC(=O)NC7=O)C8=O)nn6)CC5C(F)(F)F)C4)c3)cn2)CC1 (stereo not shown) [Compound 267],< 100
15,CC1(N)CCN(c2cnc(Sc3cccc(NC(=O)C4CC(N5CCN(c6ccc7c(c6)C(=O)N(C6CCC(=O)NC6=O)C7=O)CC5)C4)c3)cn2)CC1 (stereo not shown) [Compound 268],> 1000
16,CC1(N)CCN(c2cnc(Sc3cccc(NC(=O)C4CC(N5CCN(c6ccc7c(c6)CN(C6CCC(=O)NC6=O)C7=O)CC5)C4)c3)cn2)CC1 (stereo not shown) [Compound 269],> 1000
17,CC1(N)CCN(c2cnc(Sc3cccc(NC(=O)C4CCC(N5CCN(c6ccc7c(c6)C(=O)N(C6CCC(=O)NC6=O)C7=O)CC5)CC4)c3)cn2)CC1 (stereo not shown) [Compound 270],> 1000
18,CC1(N)CCN(c2cnc(Sc3cccc(NC(=O)C4CCC(N5CCN(c6ccc7c(c6)CN(C6CCC(=O)NC6=O)C7=O)CC5)CC4)c3)cn2)CC1 (stereo not shown) [Compound 271],> 1000
19,CC1(N)CCN(c2cnc(Sc3cccc(NC(=O)C4CC45CCN(c4ccc(CN6CCN(c7ccc8c(c7)CN(C7CCC(=O)NC7=O)C8=O)CC6)cc4F)CC5)c3)cn2)CC1 (stereo not shown) [Compound 272],> 1000
20,C[C@@H]1OCC2(CCN(c3cnc(Sc4cccc(NC(=O)C5CC56CCN(c5ccc(CN7CCN(c8ccc9c(c8)CN(C8CCC(=O)NC8=O)C9=O)CC7)cc5F)CC6)c4)cn3)CC2)[C@@H]1N (stereo partly shown) [Compound 273],> 1000
21,CC1(N)CCN(c2cnc(Sc3cccc(NC(=O)CCN4CC=C(c5ccc(C(=O)NCc6ccc7c(c6)CN(C6CCC(=O)NC6=O)C7=O)nc5)C(C)(C)C4)c3)cn2)CC1 (stereo not shown) [Compound 274],> 1000
22,C[C@@H]1OCC2(CCN(c3cnc(Sc4cccc(NC(=O)CCN5CC=C(c6ccc(C(=O)NCc7ccc8c(c7)CN(C7CCC(=O)NC7=O)C8=O)nc6)C(C)(C)C5)c4)cn3)CC2)[C@@H]1N (stereo partly shown) [Compound 275],> 1000

# Other lines, results leading:
row,DC50 [nM],SMILES
1,> 1000,"CC1(N)CCN(c2cnc(Sc3cccc(NC(=O)C4CCC(N5CC=C(c6ccc(C(=O)NCc7ccc8c(c7)CN(C7CCC(=O)NC7=O)C8=O)nc6)CC5)CC4)c3)cn2)CC1 (single isomer, unassigned) [Compound 300]"
2,> 1000,"CC1(N)CCN(c2cnc(Sc3cccc(NC(=O)C4CCC(N5CC=C(c6ccc(C(=O)NCc7ccc8c(c7)CN(C7CCC(=O)NC7=O)C8=O)nc6)CC5)CC4)c3)cn2)CC1 (single isomer, unassigned) [Compound 301]"
3,> 1000,"CC1(N)CCN(c2cnc(Sc3cccc(NC(=O)C4CC45CCC(N4CC=C(c6ccc(C(=O)NCc7ccc8c(c7)CN(C7CCC(=O)NC7=O)C8=O)nc6)CC4)CC5)c3)cn2)CC1 (single isomer, unassigned) [Compound 314]"
4,> 1000,"CC1(N)CCN(c2cnc(Sc3cccc(NC(=O)C4CC45CCC(N4CC=C(c6ccc(C(=O)NCc7ccc8c(c7)CN(C7CCC(=O)NC7=O)C8=O)nc6)CC4)CC5)c3)cn2)CC1 (single isomer, unassigned) [Compound 315]"
5,> 1000,"CC1(N)CCN(c2cnc(Sc3cccc(NC(=O)C4CC45CCC(N4CC=C(c6ccc(C(=O)Nc7ccc8c(c7)CN(C7CCC(=O)NC7=O)C8=O)nc6)CC4)CC5)c3)cn2)CC1 (single isomer, unassigned) [Compound 316]"
6,> 1000,"CC1(N)CCN(c2cnc(Sc3cccc(NC(=O)C4CC45CCC(N4CC=C(c6ccc(C(=O)NCc7ccc8c(c7)CN(C7CCC(=O)NC7=O)C8=O)nn6)CC4)CC5)c3)cn2)CC1 (single isomer, unassigned) [Compound 318]"
7,> 1000,"CC1(N)CCN(c2cnc(Sc3cccc(NC(=O)C4CC45CCC(N4CC=C(c6ccc(C(=O)NCc7ccc8c(c7)CN(C7CCC(=O)NC7=O)C8=O)nn6)CC4)CC5)c3)cn2)CC1 (single isomer, unassigned) [Compound 319]"
8,> 1000,"CC1(N)CCN(c2cnc(Sc3cccc(NC(=O)C4CC45CCC(N4CC=C(c6ccc(C(=O)Nc7ccc8c(c7)CN(C7CCC(=O)NC7=O)C8=O)nn6)CC4)CC5)c3)cn2)CC1 (single isomer, unassigned) [Compound 320]"
9,< 100,"CC1(N)CCN(c2cnc(Sc3cccc(NC(=O)C4CC45CCC(N4CC=C(c6ccc(C(=O)Nc7ccc8c(c7)CN(C7CCC(=O)NC7=O)C8=O)nn6)CC4)CC5)c3)cn2)CC1 (single isomer, unassigned) [Compound 321]"
10,> 1000,"CC1(N)CCN(c2cnc(Sc3cccc(NC(=O)C4CC45CCC(N4CC=C(c6ccc(C(=O)N7CCN(c8ccc9c(c8)CN(C8CCC(=O)NC8=O)C9=O)CC7)nc6)CC4)CC5)c3)cn2)CC1 (single isomer, unassigned) [Compound 322]"
11,> 1000,"CC1(N)CCN(c2cnc(Sc3cccc(NC(=O)C4CC45CCC(N4CC=C(c6ccc(C(=O)N7CCN(c8ccc9c(c8)CN(C8CCC(=O)NC8=O)C9=O)CC7)nc6)CC4)CC5)c3)cn2)CC1 (single isomer, unassigned) [Compound 323]"
12,> 1000,CC1(N)CCN(c2cnc(Sc3cccc(NC(=O)CCN4CC5(CCC(OCCNc6ccc(C(=O)NCc7ccc8c(c7)CN(C7CCC(=O)NC7=O)C8=O)nn6)CC5)C4)c3)cn2)CC1 (stereo not shown) [Compound 214]
